Values joined by “and” are separate entries in the source; they are usually repeats but may differ in a detail not shown here. Equal entries are not always repeated. Where two headings read alike, the source gives them in different places.
Columns and labels:
EphrinB2-EphB2 = target: T1, EphrinB2-EphB2 (Homo sapiens, UniProt P29323); assay: Octet tetramerization inhibition, immobilized human EphrinB2 binding to 50 nM soluble human EphB2
T1 construct: soluble human EphB1-His, EphB2-His, and EphB4-His ectodomains; commercially available human EphrinB1-Fc (EB1), EphrinB2-Fc (EB2), and EphrinB3-Fc (EB3) ectodomain proteins; purchased
T1 sequence (P29323 19-543 limits assumed): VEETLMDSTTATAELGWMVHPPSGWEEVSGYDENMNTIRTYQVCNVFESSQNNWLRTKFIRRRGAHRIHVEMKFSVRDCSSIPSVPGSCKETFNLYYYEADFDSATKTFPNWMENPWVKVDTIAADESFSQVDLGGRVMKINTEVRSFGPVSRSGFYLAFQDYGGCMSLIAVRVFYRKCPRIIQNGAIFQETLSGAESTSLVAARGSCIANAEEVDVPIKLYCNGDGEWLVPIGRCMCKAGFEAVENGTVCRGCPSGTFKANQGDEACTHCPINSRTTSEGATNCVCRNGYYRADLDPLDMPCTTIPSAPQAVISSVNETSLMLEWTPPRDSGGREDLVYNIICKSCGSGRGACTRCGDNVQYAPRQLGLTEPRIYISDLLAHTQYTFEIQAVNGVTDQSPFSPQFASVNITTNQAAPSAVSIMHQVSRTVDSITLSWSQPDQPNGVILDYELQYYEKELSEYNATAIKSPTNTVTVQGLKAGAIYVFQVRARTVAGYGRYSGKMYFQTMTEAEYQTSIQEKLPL

EphrinB2-EphB1 = target: T2, EphrinB2-EphB1 (Homo sapiens, UniProt P54762); assay: Octet 80 sec association/500 sec dissociation, immobilized human EphrinB2-Fc binding to soluble human EphB1-His; details: for inhibition at 3.2 µM / % Inhibition: Association + Dissociation (160 sec): 25 nM EphB1, 3.2 μM compound, A20-I as max control, 0* = less than 0, no inhibition; for EphB1 Inhibition Percent, Inhibition of Association ONLY: at 3.2 μM and 80 seconds; for EphB1 Inhibition Percent, Inhibition of Association ONLY / EphB1 Inhibition Percent, Inhibition of Association-Dissociation: immobilized human EphrinB2, 25 nM soluble human EphB1; for EphB1 Inhibition Percent, Inhibition of Association-Dissociation: at 3.2 μM and 580 seconds; for inhibition: highest dose, typically 3.2 μM
T2 construct: soluble human EphB1-His, EphB2-His, and EphB4-His ectodomains; commercially available human EphrinB1-Fc (EB1), EphrinB2-Fc (EB2), and EphrinB3-Fc (EB3) ectodomain proteins; purchased
T2 sequence (P54762 18-540 limits assumed): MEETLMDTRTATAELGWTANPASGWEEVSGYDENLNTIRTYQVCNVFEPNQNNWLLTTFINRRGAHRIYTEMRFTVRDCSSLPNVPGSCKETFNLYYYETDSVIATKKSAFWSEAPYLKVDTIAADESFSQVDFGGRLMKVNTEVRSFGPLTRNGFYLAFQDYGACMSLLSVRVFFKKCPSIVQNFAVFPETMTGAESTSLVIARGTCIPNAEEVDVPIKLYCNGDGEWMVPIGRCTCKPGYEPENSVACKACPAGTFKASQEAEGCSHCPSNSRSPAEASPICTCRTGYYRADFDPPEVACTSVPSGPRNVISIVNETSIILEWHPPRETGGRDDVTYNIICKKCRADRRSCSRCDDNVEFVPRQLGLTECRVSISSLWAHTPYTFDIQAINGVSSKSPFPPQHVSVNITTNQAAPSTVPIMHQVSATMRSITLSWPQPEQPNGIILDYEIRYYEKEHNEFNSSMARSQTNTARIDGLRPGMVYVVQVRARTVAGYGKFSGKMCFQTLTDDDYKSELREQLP
How it was run: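 EphrinB2-Fc captured on AHC biosensors, then soluble His-tagged EphB ectodomain (25 nM for % inhibition runs) associated 80 s and dissociated 500 s in PBS, 0.05% Tween-20, 1% DMSO ± compound. Compounds tested at 0.1–3.2 μM with a 10 μM max standard; IC50 from AUC of full traces or at 75 s and 135 s.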

[1] = Absolute AUC/IC50, Table A, EphrinB2-EphB2
[2] = Absolute Association IC50 (300 sec), Table A, EphrinB2-EphB2
[3] = Absolute Dissociation IC50 (450 sec), Table A, EphrinB2-EphB2
[4] = Relative AUC/IC50, Table A, EphrinB2-EphB2, compound 7: association only
[5] = Relative Association IC50 (300 sec), Table A, EphrinB2-EphB2
[6] = Relative Dissociation IC50 (450 sec), Table A, EphrinB2-EphB2
[7] = EphB1, read-out: % Inhibition: Association + Dissociation (160 sec)
[8] = EphB1, read-out: % Inhibition: Association ONLY (80 sec)
[9] = tetramerization inhibitor IC50 (relative), association step, surmountable tetramer

| SMILES | IC50 (EphrinB2-EphB2; [1]) | IC50 (EphrinB2-EphB2; [2]) | IC50 (EphrinB2-EphB2; [3]) | IC50 (EphrinB2-EphB2; [4]) | IC50 (EphrinB2-EphB2; [5]) | IC50 (EphrinB2-EphB2; [6]) | inhibition at 3.2 µM (EphrinB2-EphB1; [7]) [%] | inhibition at 3.2 µM (EphrinB2-EphB1; [8]) [%] | EphB1 Inhibition Percent, Inhibition of Association-Dissociation (EphrinB2-EphB1) | IC50 (EphrinB2-EphB2; [9]) [µM] | also measured |
| --- | --- | --- | --- | --- | --- | --- | --- | --- | --- | --- | --- |
| COc1ccc2[nH]cc(C(=O)N3CCOCC3)c2c1 [Compound 63, (5-methoxy-1H-indol-3-yl)(morpholino)methanone] | > 3.2 µM | > 3.2 µM | > 3.2 µM | > 3.2 µM | > 3.2 µM | > 3.2 µM | 0 | 1.19 | – | – | EphB1 Inhibition Percent, Inhibition of Association ONLY (EphrinB2-EphB1): 1.2% |
| Oc1c(I)cc(CN2CCOCC2)c2cccnc12 [Compound 8, 4-((8-hydroxy-7-iodoquinolin-1-ium-5-yl)methyl)morpholin-4-ium chloride] | 1.32 µM and 1 µM and 1.48 µM | 1.38 µM and 1.35 µM and > 3.2 µM | 0.98 µM and 1.26 µM and 0.85 µM | 0.63 µM | 0.63 µM and 0.85 µM | 0.66 µM and 0.93 µM | – | – | 53.2% | – | – |
| Oc1c(Br)cc(CN2CCN(Cc3ccc(Br)cc3)CC2)c2cccnc12 [Compound 44, 7-bromo-5-((4-(4-bromobenzyl)piperazin-1-yl)methyl)quinolin-8-ol] | > 3.2 µM | > 3.2 µM | 0.38 µM | – | 0.28 µM | 0.3 µM | 49.9 | 37.3 | – | – | tetramerization inhibitor activity (EphrinB2-EphB2): appears promising |
| OCc1ccc2c(CN3CCOCC3)cc(Br)c(O)c2n1 [Compound 13, 7-bromo-2-(hydroxymethyl)-5-(morpholinomethyl)quinolin-8-ol] | > 3.2 µM | > 3.2 µM | 2.51 µM | 1.45 µM | 1.41 µM | 1.54 µM | 29.1 | 12.4 | – | ~1.6 | – |
| COc1ccc2[nH]cc(C(=O)N3CCN(c4ccccc4OC)CC3)c2c1 [Compound 64, (5-methoxy-1H-indol-3-yl)(4-(2-methoxyphenyl)piperazin-1-yl)methanone] | > 1.6 µM | > 1.6 µM | > 1.6 µM | > 1.6 µM | > 1.6 µM | > 1.6 µM | 0 | 0 | – | – | – |
| Oc1ccc(CN2CCN(c3ccc(Br)cc3)CC2)c2cccnc12 [Compound 26, 5-((4-(4-bromophenyl)piperazin-1-yl)methyl)quinolin-8-ol] | – | – | – | – | – | – | 30.6 | – | 36.6% | 1.2 | % Inhibition: Association + Dissociation (160 sec) (EphrinB2-EphB1; EphB1, listed as QPB4): 35.0%; EphB1 Inhibition Percent, Inhibition of Association ONLY (EphrinB2-EphB1): 11.2% |
| Oc1c(Br)cc(CN2CCOCC2)c2cccnc12 [Compound 6, 4-((7-bromo-8-hydroxyquinolin-1-ium-5-yl)methyl)morpholin-4-ium chloride] | – | 0.93 µM | 0.69 µM | 0.48 µM | 0.49 µM | 0.53 µM | – | – | 48.7% | – | EphB1 Inhibition Percent, Inhibition of Association ONLY (EphrinB2-EphB1): 33.5% |
| Oc1c(Cl)cc(CN2CCOCC2)c2cccnc12 [Compound 3, 7-chloro-5-(morpholinomethyl)quinolin-8-ol] | 2.4 µM | 2.34 µM | 1.7 µM | – | 1.12 µM | 1.05 µM | 48.4 | 34.2 | – | ~0.5 | – |
| O=[N+]([O-])c1cc(CN2CCOCC2)c2cccnc2c1O [Compound 10, 4-((8-hydroxy-7-nitroquinolin-1-ium-5-yl)methyl)morpholin-4-ium chloride] | > 1.6 µM | > 1.6 µM | > 1.6 µM | > 1.6 µM | > 1.6 µM | > 1.6 µM | – | – | 23.1% and 14.2% and 20.2% | – | % Inhibition: Association + Dissociation (160 sec) (EphrinB2-EphB1; EphB1, listed as A19-NO2 (B)): 14.2% |
| Oc1ccc(CN2CCN(Cc3ccccc3)CC2)c2cccnc12 [Compound 41, 5-((4-benzylpiperazin-1-yl)methyl)quinolin-8-ol] | 2.09 µM and > 3.2 µM | 2.82 µM and 3.02 µM | 3.02 µM and 3 µM | 2.14 µM | 1.82 µM | 2.24 µM and 2 µM | 27.7 | 18.7 | – | – | – |
| Oc1ccc(CN2CCN(c3ccc(Br)cn3)CC2)c2cccnc12 [Compound 33, 5-((4-(5-bromopyridin-2-yl)piperazin-1-yl)methyl)quinolin-8-ol] | 2.51 µM | > 3.2 µM | – | 2.19 µM | 1.82 µM | 2.24 µM | 58.6 | 46.4 | – | – | – |
| Oc1c(Br)cc(CN2CCN(c3ccc(Br)cc3)CC2)c2cccnc12 [Compound 28, 7-bromo-5-((4-(4-bromophenyl)piperazin-1-yl)methyl)quinolin-8-ol] | 0.36 µM and 0.53 µM and 0.59 µM and 0.51 µM | 0.38 µM and 0.58 µM and 0.68 µM and 0.78 µM | 0.35 µM and 0.4 µM and 0.58 µM and 0.63 µM | 0.22 µM and 0.37 µM and 0.23 µM and 0.32 µM | 300 nM and 330 nM (2×) and 400 nM | 0.3 µM and 0.42 µM and 0.37 µM | – | – | – | ~0.3 | inhibition of unsurmountable tetramer (EphrinB2-EphB2): 100%; disruption of unsurmountable tetramer (EphrinB2-EphB2; 0.8-3.2 μM): complete loss of this structure at 3.2 μM; IC50 (EphrinB2-EphB2; tetramerization inhibitor IC50, surmountable tetramer): ~0.3 µM; % Inhibited (AUC), Association + Dissociation (EphrinB2-EphB1; EphB1, 0-160 sec, 50 nM, 10 μM compound, Table 4): 38.6%; % Inhibited (AUC), Association (EphrinB2-EphB1; EphB1, 50 nM, 10 μM compound, Table 4): 24.7%; IC50 (EphrinB2-EphB1; EphB1, Association (75″), read-out: Absolute IC50): > 3.2 µM; IC50 (EphrinB2-EphB1; EphB1, Association (75″), read-out: Relative IC50): 0.1 µM; IC50 (EphrinB2-EphB1; EphB1, Association (AUC), read-out: Absolute IC50): > 3.2 µM; IC50 (EphrinB2-EphB1; EphB1, Association (AUC), read-out: Relative IC50): 0.1 µM; IC50 (EphrinB2-EphB1; EphB1, Dissociation (135″), read-out: Absolute IC50): 0.36 µM; IC50 (EphrinB2-EphB1; EphB1, Dissociation (135″), read-out: Relative IC50): 0.08 µM; IC50 (EphrinB2-EphB1; EphB1, Full AUC, read-out: Absolute IC50): 0.5 µM; IC50 (EphrinB2-EphB1; EphB1, Full AUC, read-out: Relative IC50): 0.17 µM; inhibition (EphrinB2-EphB1; EphB1, read-out: Association (% Inhibited (AUC))): 39.1%; inhibition (EphrinB2-EphB1; EphB1, read-out: Association + Dissociation (% Inhibited (AUC))): 53.1% |
| Oc1ccc(CN2CCN(Cc3ccc(C(F)(F)F)cc3)CC2)c2cccnc12 [Compound 48, 5-((4-(4-(trifluoromethyl)benzyl)piperazin-1-yl)methyl)quinolin-8-ol] | > 1.6 µM | > 1.6 µM | > 1.6 µM | > 1.6 µM | > 1.6 µM | > 1.6 µM | 19.8 | 2.6 | – | – | – |
| O=[N+]([O-])c1cc(CN2CCOCC2)c2cccnc2c1O [Compound 9, 5-(morpholinomethyl)-7-nitroquinolin-8-ol] | > 3.2 µM | > 3.2 µM | > 3.2 µM | > 3.2 µM | > 3.2 µM | > 3.2 µM | – | – | 36.9% and 29.8% and 22.8% | > 3 | tetramerization inhibitor activity (EphrinB2-EphB2): weak, essentially inactive; % Inhibition: Association + Dissociation (160 sec) (EphrinB2-EphB1; EphB1, listed as A19-NO2 (A)): 36.9% and 29.8%; inhibition of EphB1-EphrinB2 binding (EphrinB2-EphB1; association step, general): 25%; EphB1 Inhibition Percent, Inhibition of Association ONLY (EphrinB2-EphB1): 22.5% and 16.1% and 15.7% |
